Source: patent publication US8013158B2, “Crystalline forms of topotecan hydrochloride and processes for making the same” (Scinopharm Taiwan Ltd., priority 2007, dated 2011)
“Also recorded” adds a separate entry of the source.

How the values were obtained:
[1] = Experiment 2: long-time stirring in ethyl acetate at room temperature, resulting crystalline form; assay type: physicochemical
Procedure: Topotecan hydrochloride (4.0 g Form A or Form D) is stirred in ethyl acetate (40 mL) for a long time (40, 80, or 200 hours) at room temperature. The solids are filtered and washed with cool ethyl acetate. Dry under vacuum at room temperature.

[2] = Stability of crystalline forms held at room temperature, purity by HPLC; assay type: physicochemical; conditions: for Purity / Stability at room temperature: HPLC; for Stability at room temperature: over twenty days at room temperature
Excerpt: The stabilities of some of the crystalline forms have been tested under various conditions. HPLC was used to determine the degree of degradation of topotecan hydrochloride over time.
The samples with different forms were held at room temperature for a specific period. We tested the purities of these samples by HPLC and observed the changes of their purities.
The changes to the purities of Forms D to I are summarized as follows: […]

[3] = room temperature, duration 0 hour, hydrochloride
[4] = room temperature, duration 3 days, hydrochloride
[5] = room temperature, duration 7 days, hydrochloride
[6] = room temperature, duration 20 days, hydrochloride
[7] = room temperature, duration 36 days, hydrochloride
[8] = room temperature, duration 32 days, hydrochloride

Purity [2, 3] [%] | Purity [2, 4] [%] | Purity [2, 5] [%] | Purity [2, 6] [%] | SMILES | further results
 |  |  |  | CC[C@@]1(O)C(=O)OCc2c1cc1n(c2=O)Cc2cc3c(CN(C)C)c(O)ccc3nc2-1.Cl [Form A, topotecan monohydrochloride pentahydrate, reference compound] | Crystalline form after stirring ([1]; stirred in ethyl acetate 40 h at room temperature, listed as From A): From A → A; Crystalline form after stirring ([1]; stirred in ethyl acetate 80 h at room temperature): transform to Form E; also recorded: Form A → E; Crystalline form after stirring ([1]; stirred in ethyl acetate 200 h at room temperature): Form A → E
99.32 | 99.21 | 99.17 | 99.08 | CC[C@@]1(O)C(=O)OCc2c1cc1n(c2=O)Cc2cc3c(CN(C)C)c(O)ccc3nc2-1.Cl [Form D, topotecan hydrochloride] | Stability at room temperature compared with other Forms ([2]; room temperature): better than other Forms; Purity [2, 7]: 99.43%; Stability on long time stirring compared with Form A ([1]; long time stirring in ethyl acetate): more stable than Form A; Crystalline form after stirring ([1]; stirred in ethyl acetate 40 h at room temperature, hydrochloride): Form D → D; Crystalline form after stirring ([1]; stirred in ethyl acetate 80 h at room temperature, hydrochloride): Form D → D; Crystalline form after stirring ([1]; stirred in ethyl acetate 200 h at room temperature, hydrochloride): stable; also recorded: Form D → D
98.99 | 99.27 | 99.31 | 99.29 | CC[C@@]1(O)C(=O)OCc2c1cc1n(c2=O)Cc2cc3c(CN(C)C)c(O)ccc3nc2-1.Cl [Form E, topotecan hydrochloride] | Purity [2, 7]: 99.30%
99.94 | 99.92 |  |  | CC[C@@]1(O)C(=O)OCc2c1cc1n(c2=O)Cc2cc3c(CN(C)C)c(O)ccc3nc2-1.Cl [Form F, topotecan hydrochloride] | Purity ([2]; room temperature, duration 16 days): 99.91%; Purity [2, 8]: 99.91%
99.11 | 99.06 | 99.00 | 98.88 | CC[C@@]1(O)C(=O)OCc2c1cc1n(c2=O)Cc2cc3c(CN(C)C)c(O)ccc3nc2-1.Cl [Form G, topotecan hydrochloride] | Purity [2, 8]: 99.06%
99.92 | 99.90 | 99.92 | 99.89 | CC[C@@]1(O)C(=O)OCc2c1cc1n(c2=O)Cc2cc3c(CN(C)C)c(O)ccc3nc2-1.Cl [Form H, topotecan hydrochloride] | Stability at room temperature [2]: substantially stable
99.70 | 99.65 | 99.56 | 99.56 | CC[C@@]1(O)C(=O)OCc2c1cc1n(c2=O)Cc2cc3c(CN(C)C)c(O)ccc3nc2-1.Cl [Form I, topotecan hydrochloride] | Stability at room temperature [2]: substantially stable
